Data as given in patent publication US20250101041A1, “POSITIVE ALLOSTERIC MODULATORS OF THE MUSCARINIC ACETYLCHOLINE RECEPTOR M4” (Vanderbilt University, priority 2022, published 2025).

Molecular target: T1, human mAChR M4 (Homo sapiens, UniProt P08173)
T1 construct: expressed in transfected cells; host or cells: CHO-K1 (American Type Culture Collection), stably expressing hM4 and Gqi5
T1 sequence (P08173 1-479): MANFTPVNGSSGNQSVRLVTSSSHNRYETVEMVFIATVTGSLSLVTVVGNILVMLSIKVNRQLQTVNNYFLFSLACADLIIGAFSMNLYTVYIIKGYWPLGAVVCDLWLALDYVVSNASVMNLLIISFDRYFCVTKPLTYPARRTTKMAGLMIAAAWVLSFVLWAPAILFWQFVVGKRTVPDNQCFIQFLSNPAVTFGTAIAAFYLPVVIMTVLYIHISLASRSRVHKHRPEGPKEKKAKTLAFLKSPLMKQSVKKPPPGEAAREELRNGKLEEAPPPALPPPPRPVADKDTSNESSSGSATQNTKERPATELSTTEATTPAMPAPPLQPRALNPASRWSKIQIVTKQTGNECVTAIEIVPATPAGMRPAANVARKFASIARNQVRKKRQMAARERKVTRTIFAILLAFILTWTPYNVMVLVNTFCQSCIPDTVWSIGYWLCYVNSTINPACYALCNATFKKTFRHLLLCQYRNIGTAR
Assay: mAChR M4 cell-based functional assay: calcium mobilization (Fluo-4, FDSS), potentiation of EC20 acetylcholine response in hM4-Gqi5 CHO-K1 cells
Conditions: human M4; for Emax at 30 µM: CHO-K1, % ACh maximum at 30 μM; for EC50: potentiation of EC20 acetylcholine response, calcium mobilization
How it was run: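 CHO-K1 cells stably co-expressing human M4 and chimeric Gqi5, loaded with Fluo-4 AM (50 min, 37 °C). Compounds in 11-point 1:3 series added first; EC20 acetylcholine added at 144 s and again at 230 s. Calcium read on FDSS at 1 Hz; EC50 and Emax from four-parameter logistic fit of potentiated EC20 response.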

Emax at 30 µM	EC50	SMILES
64%	1910 nM	COc1cccc(C2CN(c3cnc4c(c3)CN(c3nn5c(=O)ccnc5cc3C)CC4)CCO2)c1 (stereo not shown) [Compound 2-84, 7-(3-(2-(3-methoxyphenyl)morpholino)-7,8-dihydro-1,6-naphthyridin-6(5H)-yl)-8-methyl-4H-pyrimido[1,2-b]pyridazin-4-one]
86%	422 nM	Cc1ncc(-c2cnc3c(c2)CN(c2nn4c(=O)ccnc4cc2C)CC3)s1 [Compound 1-5, 8-methyl-7-(3-(2-methylthiazol-5-yl)-7,8-dihydro-1,6-naphthyridin-6(5H)-yl)-4H-pyrimido[1,2-b]pyridazin-4-one]
99%	1750 nM	COCc1cc(=O)n2nc(N3CCc4ncc(-c5cnc(OC)cc5C)cc4C3)c(C)c(C)c2n1 [Compound 1-262, 7-(3-(6-methoxy-4-methylpyridin-3-yl)-7,8-dihydro-1,6-naphthyridin-6(5H)-yl)-2-(methoxymethyl)-8,9-dimethyl-4H-pyrimido[1,2-b]pyridazin-4-one]
97%	203 nM	Cc1c(N2CCc3ncc(-c4ccnn4C)cc3C2)nn2c(=O)ccnc2c1C [Compound 1-63, 8,9-dimethyl-7-(3-(1-methyl-1H-pyrazol-5-yl)-7,8-dihydro-1,6-naphthyridin-6(5H)-yl)-4H-pyrimido[1,2-b]pyridazin-4-one]
104%	140 nM	COc1ccc(-c2cnc3c(c2)CN(c2nn4c(=O)ccnc4cc2C)CC3)cn1 [Compound 1-60, 7-(3-(6-methoxypyridin-3-yl)-7,8-dihydro-1,6-naphthyridin-6(5H)-yl)-8-methyl-4H-pyrimido[1,2-b]pyridazin-4-one]
79%	60 nM	COCc1cc(=O)n2nc(N3CCc4ncc(C(F)(F)F)cc4C3)c(C)c(C)c2n1 [Compound 1-109, 2-(Methoxymethyl)-8,9-dimethyl-7-(3-(trifluoromethyl)-7,8-dihydro-1,6-naphthyridin-6(5H)-yl)-4H-pyrimido[1,2-b]pyridazin-4-one]
68%	477 nM	COCc1cc(=O)n2nc(N3CCc4ncc(-c5ccc(F)c(F)c5)cc4C3)c(C)cc2n1 [Compound 1-330, 7-(3-(3,4-difluorophenyl)-7,8-dihydro-1,6-naphthyridin-6(5H)-yl)-2-(methoxymethyl)-8-methyl-4H-pyrimido[1,2-b] pyridazin-4-one]
65%	298 nM	COCc1cc(=O)n2nc(N3CCc4ncc(-c5ccc(C)o5)cc4C3)c(C)cc2n1 [Compound 1-372, 2-(methoxymethyl)-8-methyl-7-(3-(5-methylfuran-2-yl)-7,8-dihydro-1,6-naphthyridin-6(5H)-yl)-4H-pyrimido[1,2-b] pyridazin-4-one]
92%	274 nM	COc1cncc(-c2cnc3c(c2)CN(c2nn4c(=O)cc(C)nc4cc2C)CC3)c1 [Compound 1-70, 7-(3-(5-methoxypyridin-3-yl)-7,8-dihydro-1,6-naphthyridin-6(5H)-yl)-2,8-dimethyl-4H-pyrimido[1,2-b]pyridazin-4-one]
65%	527 nM	Cc1cc2nccc(=O)n2nc1N1CCc2ncc(Nc3ccc(C(C)C)nc3)cc2C1 [Compound 2-101, 7-(3-((6-isopropylpyridin-3-yl)amino)-7,8-dihydro-1,6-naphthyridin-6(5H)-yl)-8-methyl-4H-pyrimido[1,2-b]pyridazin-4-one]
59%	1190 nM	Cc1ccc(-c2cnc3c(c2)CN(c2nn4c(=O)cc(CC5CCCC5)nc4c(C)c2C)CC3)cn1 [Compound 1-226, 2-(cyclopentylmethyl)-8,9-dimethyl-7-(3-(6-methylpyridin-3-yl)-7,8-dihydro-1,6-naphthyridin-6(5H)-yl)-4H-pyrimido[1,2-b]pyridazin-4-one]
80%	417 nM	Cc1cc(=O)n2nc(N3CCc4ncc(-c5cccc(F)c5)cc4C3)c(C)c(C)c2n1 [Compound 1-203, 7-(3-(3-fluorophenyl)-7,8-dihydro-1,6-naphthyridin-6(5H)-yl)-2,8,9-trimethyl-4H-pyrimido[1,2-b]pyridazin-4-one]
66%	1410 nM	Cc1cc(=O)n2nc(N3CCc4ncc(-c5cnn(C6CCOCC6)c5)cc4C3)c(C)c(C)c2n1 [Compound 1-182, 2,8,9-trimethyl-7-(3-(1-(tetrahydro-2H-pyran-4-yl)-1H-pyrazol-4-yl)-7,8-dihydro-1,6-naphthyridin-6(5H)-yl)-4H-pyrimido[1,2-b]pyridazin-4-one]
109%	357 nM	COCc1cc(=O)n2nc(N3CCc4ncc(-c5cnc(Cl)cc5C)cc4C3)c(C)c(C)c2n1 [Compound 1-379, 7-(3-(6-chloro-4-methylpyridin-3-yl)-7,8-dihydro-1,6-naphthyridin-6(5H)-yl)-2-(methoxymethyl)-8,9-dimethyl-4H-pyrimido[1,2-b]pyridazin-4-one]
80%	351 nM	Cc1cc2nccc(=O)n2nc1N1CCc2ncc(-c3sc(C(=O)NC4CC4)cc3C)cc2C1 [Compound 1-428, N-cyclopropyl-4-methyl-5-(6-(8-methyl-4-oxo-4H-pyrimido[1,2-b]pyridazin-7-yl)-5,6,7,8-tetrahydro-1,6-naphthyridin-3-yl)thiophene-2-carboxamide]
94%	1 nM	Cc1cc2nc(C(F)F)cc(=O)n2nc1N1CCc2ncc(Nc3ccncc3F)cc2C1 [Compound 2-159, 2-(difluoromethyl)-7-(3-((3-fluoropyridin-4-yl)amino)-7,8-dihydro-1,6-naphthyridin-6(5H)-yl)-8-methyl-4H-pyrimido[1,2-b]pyridazin-4-one]
71%	409 nM	Cc1cc(=O)n2nc(N3CCc4ncc(-c5ccc(C)c(F)c5)cc4C3)c(C)cc2n1 [Compound 1-206, 7-(3-(3-fluoro-4-methylphenyl)-7,8-dihydro-1,6-naphthyridin-6(5H)-yl)-2,8-dimethyl-4H-pyrimido[1,2-b]pyridazin-4-one]
84%	460 nM	COc1ccc(-c2cnc3c(c2)CN(c2nn4c(=O)cc(C)nc4c(C)c2C)CC3)cn1 [Compound 1-186, 7-(3-(6-methoxypyridin-3-yl)-7,8-dihydro-1,6-naphthyridin-6(5H)-yl)-2,8,9-trimethyl-4H-pyrimido[1,2-b]pyridazin-4-one]
88%	331 nM	Cc1ccc(-c2cnc3c(c2)CN(c2nn4c(=O)cc(C)nc4cc2C)CC3)cc1 [Compound 1-293, 2,8-dimethyl-7-(3-(p-tolyl)-7,8-dihydro-1,6-naphthyridin-6(5H)-yl)-4H-pyrimido[1,2-b]pyridazin-4-one]
86%	162 nM	Cc1cc2ncc(Cl)c(=O)n2nc1N1CCc2ncc(-c3ccnn3C)cc2C1 [Compound 1-10, 3-chloro-8-methyl-7-(3-(1-methyl-1H-pyrazol-5-yl)-7,8-dihydro-1,6-naphthyridin-6(5H)-yl)-4H-pyrimido[1,2-b]pyridazin-4-one]
86%	188 nM	Cc1cc2nccc(=O)n2nc1N1CCc2ncc(N3CCc4ncccc43)cc2C1 [Compound 2-58, 7-(3-(2,3-dihydro-1H-pyrrolo[3,2-b]pyridin-1-yl)-7,8-dihydro-1,6-naphthyridin-6(5H)-yl)-8-methyl-4H-pyrimido[1,2-b]pyridazin-4-one]
92%	798 nM	Cc1cc(=O)n2nc(N3CCc4ncc(-c5ccnnc5)cc4C3)c(C)c(C)c2n1 [Compound 1-132, 2,8,9-trimethyl-7-(3-(pyridazin-4-yl)-7,8-dihydro-1,6-naphthyridin-6(5H)-yl)-4H-pyrimido[1,2-b]pyridazin-4-one]
97%	60 nM	Cc1cc2n(n1)CCCN2c1cnc2c(c1)CN(c1nn3c(=O)ccnc3cc1C)CC2 [Compound 2-5, 8-methyl-7-(3-(2-methyl-6,7-dihydropyrazolo[1,5-a]pyrimidin-4(5H)-yl)-7,8-dihydro-1,6-naphthyridin-6(5H)-yl)-4H-pyrimido[1,2-b]pyridazin-4-one]
60%	597 nM	Cc1cc2nccc(=O)n2nc1N1CCc2ncc(-c3ccnn3C(C)C)cc2C1 [Compound 1-396, 7-(3-(1-isopropyl-1H-pyrazol-5-yl)-7,8-dihydro-1,6-naphthyridin-6(5H)-yl)-8-methyl-4H-pyrimido[1,2-b]pyridazin-4-one]
53%	371 nM	Cc1c(N2CCc3ncc(-c4cnccc4C(F)(F)F)cc3C2)nn2c(=O)ccnc2c1C [Compound 1-142, 8,9-dimethyl-7-(3-(4-(trifluoromethyl)pyridin-3-yl)-7,8-dihydro-naphthyridin-6(5H)-yl)-4H-pyrimido[1,2-b]pyridazin-4-one]
90%	99 nM	Cc1cc(F)ccc1Nc1cnc2c(c1)CN(c1nn3c(=O)ccnc3cc1C)CC2 [Compound 2-65, 7-(3-((4-fluoro-2-methylphenyl)amino)-7,8-dihydro-1,6-naphthyridin-6(5H)-yl)-8-methyl-4H-pyrimido[1,2-b]pyridazin-4-one]
